# Article PMC9727182, “Identification of pharmacokinetic markers for safflower injection using a combination of system pharmacology, multicomponent pharmacokinetics, and quantitative proteomics study” (Frontiers in Pharmacology, 2022)
# Where “and” joins values, the source holds several entries; their conditions need not be identical. Identical values can stand only once.
# How the values were obtained:
# [1] = Multicomponent pharmacokinetics in rat plasma after i.v. safflower injection (SI); conditions: for AUC(0-inf) / AUC(0-t) / Cmax / MRT inf / MRT last / Vd / clearance / half-life: male, Sprague-Dawley, rat, plasma, iv; for detected mean maximum plasma concentration: rats, after administration of 4 ml/kg of SI
# Procedure: The animal experiments were approved by the Animal Care and Use Committee of the College of Animal Science (College of Bee Science), Fujian Agriculture and Forestry University (Approval Number: PZCASFAFU21012). 250 ± 20 g of male Sprague-Dawley (SD) rats were provided by Lab Animal Center in Fujian Medical University (Fuzhou, China).
# Ten rats were divided into three groups (Low dose group, n = 4; medium and high groups, n = 3, respectively). […] For each rat, 2 ml of physiological saline was supplemented after 30 min sampling via intraperitoneal injection. The plasma samples were obtained by centrifugation at 3,000 rpm for 10 min and stored at −20°C until analysis.
# Clear supernatant (5 μl) was injected into HPLC-MS for bioanalysis.
# The sample was separated on a RD-C18 column (4.6 mm × 50 mm, 3.5 μm, Zhongpu Develop, China). The mobile phase incudes water with 0.1% acetic acid (A) and acetonitrile (B). […] The column temperature, flow rate and injection volume were set at 30°C, 0.5 ml/min and 5 μl, respectively.
# Non-compartmental model was used to calculate the PK parameters by DAS 3.0 software (Chinese Pharmacologic Society, Beijing, China). A single-tailed t-test was carried out in the study.
# [2] = tested on: H9c2 cardiomyocytes injured by H2O2; experiment: Protection of cardiomyocytes injured by H2O2 (MTT); assay type: cell-based; conditions: preliminary test at maximum detected plasma concentration
# Procedure: H9c2 cardiomyocytes obtained from Cell Bank of the Chinese Academy of Sciences (Shanghai, China) were cultured in DMEM (high glucose) supplemented with 1% P/S and 15% FBS in 5% CO2 at 37°C. The cells were collected with 0.25% trypsin, followed by re-seeding in 96-well multiplates with a density of 5×10^3 cells per well. The cell experiments were grouped as follows: normal group, model group (H2O2), administration groups and positive control groups (N-Acetyl-L-cysteine, NAC). […] After that, cells were incubated with 0.5 mg/ml of MTT for 4 h under standard condition, followed by addition of 150 µl DMSO into every well. The cell supernatants were finally removed and the optical density (OD) was recorded at 570 nm using a microplate reader (Thermo Fisher Scientific, United States). The protection rate of the compounds on H9c2 cardiomyocytes was calculated as (OD valueadministration group (or NAC group)-OD valuemodel group)/(OD valuenormal group-OD valuemodel group) ×100%.
# [3] = Stability of 6 compounds of SI in rat plasma; conditions: for 10h in auto-sampler vials RE: extracted rat plasma; for 6h at room temperature RE / Freeze-thaw stability (three cycles) RE / Long-term stability (-80℃,15 days) RE: rat plasma
# Description: The LC-MS method was validated by linearity, limits of detection (LOD), limits of quantification (LOQ), precision, accuracy, extraction recovery, matrix effect and stability of the 6 ingredients in rat plasma. Calibration curves were plotted using weighted linear regression of the peak area ratio of analyte to the IS against the corresponding nominal concentration of the analyte. LOD and LOQ were defined as the detectable concentration at which the ratio of signal to noise was more than 3 and 10, respectively. Intra- and inter-day accuracy and precision were assessed by detecting quality control (QC) samples using five replicates of rat samples at three concentration levels on one or three validation days, respectively. Accuracy and precision were expressed by relative error (RE) and relative standard deviation (RSD), respectively. The extraction recovery and matrix effect of the 6 components at above-mentioned three concentration levels were determined. Stability was assessed under the condition of placing un-treated plasma samples at room temperature for 6 h, and extracted plasma samples in auto-sampler for 10 h, as well as placing plasma samples within freeze-thaw three cycles and at −80 °C for 15 days.
# [4] = Stability in diluted SI at room temperature; conditions: analyzed at 0, 2, 4, 8, 12, 24, and 48 h
# [5] = 1 h after administration (2 ml/kg of SI), preliminary test
# [6] = behind 15 min after i.v. low dose administration (1 ml/kg of SI)
smiles,measurement,setting,value
"C[C@@H]1O[C@@H](OC[C@H]2O[C@@H](Oc3c(-c4ccc(O)c(O)c4)oc4cc(O)cc(O)c4c3=O)[C@H](O)[C@@H](O)[C@@H]2O)[C@H](O)[C@H](O)[C@H]1O [RU, rutin]",detection in rat plasma,[1]; [5],can be detected
same,detection in rat plasma,[1]; [6],can’t be detected
same,AUC(0-inf),[1]; 4 ml/kg,15.1 ± 2.23 ng·h/mL
same,AUC(0-t),[1]; 4 ml/kg,12.4 ± 1.37 ng·h/mL
same,Cmax,[1]; 4 ml/kg,39.3 ± 1.53 ng/mL
same,MRT inf,[1]; 4 ml/kg,21.6 ± 3.6 min
same,MRT last,[1]; 4 ml/kg,13.2 ± 1.8 min
same,Vd,[1]; 4 ml/kg,0.3 ± 0.02 L/kg
same,clearance,[1]; 4 ml/kg,14.3 mL/min/kg
same,half-life,[1]; 4 ml/kg,14.4 ± 2.4 min
same,detected mean maximum plasma concentration,[1],0.039 μg/mL and 0.06 μM
same,protection,[2]; 0.06 μM,absence of protection
same,10h in auto-sampler vials RE,[3]; spiked 40 ng/mL,6.25%
same,10h in auto-sampler vials RE,[3]; spiked 1000 ng/mL,2.90%
same,10h in auto-sampler vials RE,[3]; spiked 10000 ng/mL,-5.96%
same,6h at room temperature RE,[3]; spiked 40 ng/mL,-4.00%
same,Freeze-thaw stability (three cycles) RE,[3]; spiked 40 ng/mL,-4.50%
same,"Long-term stability (-80℃,15 days) RE",[3]; spiked 40 ng/mL,7.00%
same,6h at room temperature RE,[3]; spiked 1000 ng/mL,-2.48%
same,Freeze-thaw stability (three cycles) RE,[3]; spiked 1000 ng/mL,-3.06%
same,"Long-term stability (-80℃,15 days) RE",[3]; spiked 1000 ng/mL,3.36%
same,6h at room temperature RE,[3]; spiked 10000 ng/mL,-3.71%
same,Freeze-thaw stability (three cycles) RE,[3]; spiked 10000 ng/mL,0.09%
same,"Long-term stability (-80℃,15 days) RE",[3]; spiked 10000 ng/mL,-2.80%
same,Stability RSD,[4],2.31%
"O=C(O)[C@H]1O[C@@H](Oc2cc3oc(-c4ccc(O)cc4)cc(=O)c3c(O)c2O)[C@H](O)[C@@H](O)[C@@H]1O [SCU, scutellarin]",detection in rat plasma,[1]; [5],can be detected
same,detection in rat plasma,[1]; [6],can’t be detected
same,half-life,[1],≥ 155 min
same,AUC(0-inf),[1]; 2 ml/kg,105 ± 31.5 ng·h/mL
same,AUC(0-t),[1]; 2 ml/kg,89.8 ± 21 ng·h/mL
same,Cmax,[1]; 2 ml/kg,162 ± 17.4 ng/mL
same,MRT inf,[1]; 2 ml/kg,174 ± 145 min
same,MRT last,[1]; 2 ml/kg,87.6 ± 38.4 min
same,Vd,[1]; 2 ml/kg,0.05 ± 0.02 L/kg
same,clearance,[1]; 2 ml/kg,0.167 mL/min/kg
same,half-life,[1]; 2 ml/kg,155 ± 110 min
same,AUC(0-inf),[1]; 4 ml/kg,358 ± 34 ng·h/mL
same,AUC(0-t),[1]; 4 ml/kg,306 ± 12.5 ng·h/mL
same,Cmax,[1]; 4 ml/kg,327 ± 60 ng/mL
same,MRT inf,[1]; 4 ml/kg,178 ± 89.4 min
same,MRT last,[1]; 4 ml/kg,94.2 ± 40.8 min
same,Vd,[1]; 4 ml/kg,0.03 ± 0.01 L/kg
same,clearance,[1]; 4 ml/kg,0.167 mL/min/kg
same,half-life,[1]; 4 ml/kg,170 ± 71.4 min
same,detected mean maximum plasma concentration,[1],0.327 μg/mL and 0.7 μM
same,protection,[2]; 0.7 μM,absence of protection
same,10h in auto-sampler vials RE,[3]; spiked 40 ng/mL,10.63%
same,10h in auto-sampler vials RE,[3]; spiked 1000 ng/mL,0.30%
same,10h in auto-sampler vials RE,[3]; spiked 10000 ng/mL,-1.48%
same,6h at room temperature RE,[3]; spiked 40 ng/mL,-6.50%
same,Freeze-thaw stability (three cycles) RE,[3]; spiked 40 ng/mL,0.00%
same,"Long-term stability (-80℃,15 days) RE",[3]; spiked 40 ng/mL,6.00%
same,6h at room temperature RE,[3]; spiked 1000 ng/mL,-2.90%
same,Freeze-thaw stability (three cycles) RE,[3]; spiked 1000 ng/mL,-4.00%
same,"Long-term stability (-80℃,15 days) RE",[3]; spiked 1000 ng/mL,2.80%
same,6h at room temperature RE,[3]; spiked 10000 ng/mL,-2.06%
same,Freeze-thaw stability (three cycles) RE,[3]; spiked 10000 ng/mL,-5.21%
same,"Long-term stability (-80℃,15 days) RE",[3]; spiked 10000 ng/mL,-0.81%
same,Stability RSD,[4],4.42%
"O=C(O)/C=C/c1ccc(O)cc1 [p-CA, p-coumaric acid]",detection in rat plasma,[1]; [5],can be detected
same,AUC(0-inf),[1]; 1 ml/kg,67.7 ± 57.2 ng·h/mL
same,AUC(0-t),[1]; 1 ml/kg,62.5 ± 50 ng·h/mL
same,Cmax,[1]; 1 ml/kg,305 ± 147 ng/mL
same,MRT inf,[1]; 1 ml/kg,7.2 ± 4.2 min
same,MRT last,[1]; 1 ml/kg,6 ± 3 min
same,Vd,[1]; 1 ml/kg,0.11 ± 0.03 L/kg
same,clearance,[1]; 1 ml/kg,20.2 mL/min/kg
same,half-life,[1]; 1 ml/kg,4.8 ± 3 min
same,AUC(0-inf),[1]; 2 ml/kg,277 ± 84 ng·h/mL
same,AUC(0-t),[1]; 2 ml/kg,265 ± 89.7 ng·h/mL
same,Cmax,[1]; 2 ml/kg,715 ± 85.8 ng/mL
same,MRT inf,[1]; 2 ml/kg,19.8 ± 0.6 min
same,MRT last,[1]; 2 ml/kg,16.2 ± 1.8 min
same,Vd,[1]; 2 ml/kg,0.13 ± 0.07 L/kg
same,clearance,[1]; 2 ml/kg,6.67 mL/min/kg
same,half-life,[1]; 2 ml/kg,13.2 ± 3.6 min
same,AUC(0-inf),[1]; 4 ml/kg,469 ± 38.1 ng·h/mL
same,AUC(0-t),[1]; 4 ml/kg,433 ± 44.5 ng·h/mL
same,Cmax,[1]; 4 ml/kg,1260 ng/mL
same,MRT inf,[1]; 4 ml/kg,19.2 ± 2.4 min
same,MRT last,[1]; 4 ml/kg,15 ± 2.4 min
same,Vd,[1]; 4 ml/kg,0.14 ± 0.03 L/kg
same,clearance,[1]; 4 ml/kg,7.5 mL/min/kg
same,half-life,[1]; 4 ml/kg,12.6 ± 3 min
same,protection,[2]; 8.5 μM,absence of protection
same,10h in auto-sampler vials RE,[3]; spiked 150 ng/mL,-6.50%
same,10h in auto-sampler vials RE,[3]; spiked 400 ng/mL,0.06%
same,10h in auto-sampler vials RE,[3]; spiked 10000 ng/mL,-4.10%
same,6h at room temperature RE,[3]; spiked 150 ng/mL,-2.67%
same,Freeze-thaw stability (three cycles) RE,[3]; spiked 150 ng/mL,0.13%
same,"Long-term stability (-80℃,15 days) RE",[3]; spiked 150 ng/mL,-0.13%
same,6h at room temperature RE,[3]; spiked 400 ng/mL,-2.50%
same,Freeze-thaw stability (three cycles) RE,[3]; spiked 400 ng/mL,3.70%
same,"Long-term stability (-80℃,15 days) RE",[3]; spiked 400 ng/mL,1.40%
same,6h at room temperature RE,[3]; spiked 10000 ng/mL,-2.72%
same,Freeze-thaw stability (three cycles) RE,[3]; spiked 10000 ng/mL,-1.55%
same,"Long-term stability (-80℃,15 days) RE",[3]; spiked 10000 ng/mL,6.82%
same,Stability RSD,[4],3.29%
"O=Cc1ccc(O)cc1 [p-HBA, p-hydroxybenzaldehyde]",detection in rat plasma,[1]; [5],can be detected
same,detection in rat plasma,[1]; [6],can’t be detected
same,AUC(0-inf),[1]; 2 ml/kg,23.4 ± 5.21 ng·h/mL
same,AUC(0-t),[1]; 2 ml/kg,20.1 ± 4.4 ng·h/mL
same,Cmax,[1]; 2 ml/kg,44.7 ± 5.13 ng/mL
same,MRT inf,[1]; 2 ml/kg,40.2 ± 6.6 min
same,MRT last,[1]; 2 ml/kg,25.8 ± 2.4 min
same,Vd,[1]; 2 ml/kg,0.35 ± 0.04 L/kg
same,clearance,[1]; 2 ml/kg,8.83 mL/min/kg
same,half-life,[1]; 2 ml/kg,28.8 ± 6.6 min
same,AUC(0-inf),[1]; 4 ml/kg,44 ± 45.2 ng·h/mL
same,AUC(0-t),[1]; 4 ml/kg,35.2 ± 31.1 ng·h/mL
same,Cmax,[1]; 4 ml/kg,74.3 ± 2.52 ng/mL
same,MRT inf,[1]; 4 ml/kg,31.8 ± 31.8 min
same,MRT last,[1]; 4 ml/kg,19.2 ± 15 min
same,Vd,[1]; 4 ml/kg,0.34 ± 0.09 L/kg
same,clearance,[1]; 4 ml/kg,16.5 mL/min/kg
same,half-life,[1]; 4 ml/kg,23.4 ± 21 min
same,detected mean maximum plasma concentration,[1],0.074 μg/mL and 0.61 μM
same,protection,[2]; 0.61 μM,absence of protection
same,10h in auto-sampler vials RE,[3]; spiked 40 ng/mL,-2.50%
same,10h in auto-sampler vials RE,[3]; spiked 400 ng/mL,0.63%
same,10h in auto-sampler vials RE,[3]; spiked 10000 ng/mL,4.23%
same,Freeze-thaw stability (three cycles) RE,[3]; spiked 40 ng/mL,1.00%
same,"Long-term stability (-80℃,15 days) RE",[3]; spiked 40 ng/mL,14.50%
same,6h at room temperature RE,[3]; spiked 400 ng/mL,-3.70%
same,Freeze-thaw stability (three cycles) RE,[3]; spiked 400 ng/mL,4.05%
same,"Long-term stability (-80℃,15 days) RE",[3]; spiked 400 ng/mL,0.45%
same,6h at room temperature RE,[3]; spiked 10000 ng/mL,-3.91%
same,Freeze-thaw stability (three cycles) RE,[3]; spiked 10000 ng/mL,-3.10%
same,"Long-term stability (-80℃,15 days) RE",[3]; spiked 10000 ng/mL,3.02%
same,Stability RSD,[4],4.11%
